Columns and labels:
physchem = conditions: buffer, pH 7.4
in vitro = conditions: human, Caco-2

logD (physchem) | Papp A→B (in vitro) | Compound
3 | 28.8 ×10⁻⁶ cm/s | C[C@H]1C[C@@H](c2ccncc2NC(=O)c2ccc(F)c(-c3c(F)cccc3F)n2)C[C@@H](O)[C@@H]1O
1.9 | 8.5 ×10⁻⁶ cm/s | C[C@@H]1C[C@H](N)C[C@H](c2ccncc2NC(=O)c2ccc(F)c(-c3c(F)cccc3F)n2)C1 [LGH-447]
